Data: patent US9452997B2, “Piperidine and piperazine derivatives as autotaxin inhibitors” (Merck Patent GmbH, priority 2009, dated 2016)

What follows are molecules tested against T1, Recombinant autotaxin (Homo sapiens, UniProt Q13822) (assay: Autotaxin assay (Amplex Red, LPC substrate)). Settings: % of control at 1E−05 (compound concentration); uninhibited control = 100%.
T1 construct: made in house; host or cells: Hi5 insect cells (baculovirus)
Format: biochemical
Summary of the method: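 Recombinant autotaxin (Hi5 baculovirus, 16 ng) pre-incubated with compound 30 min at 22° C, then reacted with 75 μM egg LPC for 90 min at 37° C. Choline released is coupled to H2O2 and Amplex Red fluorescence (ex 485/em 612 nm). IC50 from ten 1:3 dilutions from 30 μM, duplicates, normalised to 500 μM C14 LPA.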

% CTRL (1E−05) [%] | Structure (SMILES)
89 | CS(=O)(=O)c1ccc(CCC(=O)N2CCC(N3CCN(C(=O)c4ccc5[nH]nnc5c4)CC3)CC2)cc1 [Compound 88, 1-{4-[4-(1H-Benzotriazole-5-carbonyl)-piperazin-1-yl]-piperidin-1-yl}-3-(4-methanesulfonyl-phenyl)-propan-1-one]

Same assay, conditions: recombinant autotaxin, LPC substrate, Amplex Red detection; values given as upper bounds

Structure (SMILES) | IC50 [µM]
Cc1ccc(COC(=O)N2CCN(C3CCN(C(=O)c4ccc5[nH]nnc5c4)CC3)CC2)cc1 [Compound 40, 4-[1-(1H-Benzotriazole-5-carbonyl)-piperidin-4-yl]-piperazine-1-carboxylic acid 4-methyl-benzyl ester] | < 10
O=C(NCCc1ccncc1)C1CC(=O)N(C2CCN(C(=O)OCc3cc(Cl)cc(Cl)c3)CC2)C1 (stereo not shown) [Compound 28, 4-[2-Oxo-4-(2-pyridin-4-yl-ethylcarbamoyl)-pyrrolidin-1-yl]-piperidine-1-carboxylic acid 3,5-dichloro-benzyl ester] | < 10
O=C(OCc1ccc(C(F)(F)F)c(Cl)c1)N1CCN(C2CCN(C(=O)c3ccc4[nH]nnc4c3)CC2)CC1 [Compound 96, 4-[1-(1H-Benzotriazole-5-carbonyl)-piperidin-4-yl]-piperazine-1-carboxylic acid 3-chloro-4-trifluoromethyl-benzyl ester] | < 1
Cc1c(Br)cc(CCC(=O)N2CCN(C3CCN(C(=O)c4ccc5[nH]nnc5c4)CC3)CC2)cc1Br [Compound 130, 1-{4-[1-(1H-Benzotriazole-5-carbonyl)-piperidin-4-yl]-piperazin-1-yl}-3-(3,5-dibromo-4-methyl-phenyl)-propan-1-one] | < 10
O=C(CCc1ccc(Cl)cc1F)N1CCC(NC2CCN(C(=O)c3ccc4[nH]nnc4c3)CC2)C1 (stereo not shown) [Compound 66, 1-{3-[1-(1H-Benzotriazole-5-carbonyl)-piperidin-4-ylamino]-pyrrolidin-1-yl}-3-(4-chloro-2-fluoro-phenyl)-propan-1-one] | < 10
O=C(OCc1ccc(Cl)cc1)N1CCN(C2CCN(C(=O)c3ccc4[nH]nnc4c3)CC2)CC1 [Compound 42, 4-[1-(1H-Benzotriazole-5-carbonyl)-piperidin-4-yl]-piperazine-1-carboxylic acid 4-chloro-benzyl ester] | < 1
O=C(CCc1ccc(C(F)(F)F)cc1)N1CCC(N2CCN(C(=O)c3ccc4[nH]c(=O)oc4c3)CC2)CC1 [Compound 49, 6-(4-{1-[3-(4-Trifluoromethyl-phenyl)-propionyl]-piperidin-4-yl}-piperazine-1-carbonyl)-3H-benzooxazol-2-one] | < 1
O=C(Cc1ccc(Cl)cc1)N1CCC(C2CCN(C(=O)c3ccc4[nH]nnc4c3)CC2)CC1 [Compound 23, 1-[1′-(1H-Benzotriazole-5-carbonyl)-[4,4′]bipiperidinyl-1-yl]-2-(4-chloro-phenyl)-ethanone] | < 30
O=C(NCc1ccc(SC(F)(F)F)cc1)N1CCN(C2CCN(C(=O)c3ccc4[nH]nnc4c3)CC2)CC1 [Compound 122, 4-[1-(1H-Benzotriazole-5-carbonyl)-piperidin-4-yl]-piperazine-1-carboxylic acid 4-trifluoromethylsulfanyl-benzylamide] | < 10
O=C(CCc1cc(Cl)c(F)c(Cl)c1)N1CCN(C2CCN(C(=O)c3ccc4[nH]nnc4c3)CC2)CC1 [Compound 104, 1-{4-[1-(1H-Benzotriazole-5-carbonyl)-piperidin-4-yl]-piperazin-1-yl}-3-(3,5-dichloro-4-fluoro-phenyl)-propan-1-one] | < 10
O=C(OCc1ccccc1Cl)N1CCN(C2CCN(C(=O)c3ccc4[nH]nnc4c3)CC2)CC1 [Compound 39, 4-[1-(1H-Benzotriazole-5-carbonyl)-piperidin-4-yl]-piperazine-1-carboxylic acid 2-chloro-benzyl ester] | < 10
O=C(OCc1ccc(F)c(Cl)c1)N1CCC(N2CCN(C(=O)c3ccc4[nH]nnc4c3)CC2)CC1 [Compound 78, 4-[4-(1H-Benzotriazole-5-carbonyl)-piperazin-1-yl]-piperidine-1-carboxylic acid 3-chloro-4-fluoro-benzyl ester] | < 1
O=C(CCc1cc(F)c(F)c(Cl)c1)N1CCN(C2CCN(C(=O)c3ccc4[nH]nnc4c3)CC2)CC1 [Compound 129, 1-{4-[1-(1H-Benzotriazole-5-carbonyl)-piperidin-4-yl]-piperazin-1-yl}-3-(3-chloro-4,5-difluoro-phenyl)-propan-1-one] | < 10
O=C(Nc1cc(Cl)cc(Cl)c1)N1CCN(C2CCN(C(=O)c3ccc4[nH]nnc4c3)CC2)CC1 [Compound 31, 4-[1-(1H-Benzotriazole-5-carbonyl)-piperidin-4-yl]-piperazine-1-carboxylic acid (3,5-dichloro-phenyl)-amide] | < 30
O=C(CCc1ccc(C(F)(F)F)cc1)N1CCC(N2CCN(C(=O)c3ccc4[nH]nnc4c3)CC2)CC1 [Compound 50, 1-{4-[4-(1H-Benzotriazole-5-carbonyl)-piperazin-1-yl]-piperidin-1-yl}-3-(4-trifluoromethyl-phenyl)-propan-1-one] | < 10
COc1c(C)cc(COC(=O)N2CCN(C3CCN(C(=O)c4ccc5[nH]nnc5c4)CC3)CC2)cc1C [Compound 120, 4-[1-(1H-Benzotriazole-5-carbonyl)-piperidin-4-yl]-piperazine-1-carboxylic acid 4-methoxy-3,5-dimethyl-benzyl ester] | < 10
Cc1ccc(-c2cccc(C(=O)N3CCC(C4CCN(C(=O)c5ccc6[nH]nnc6c5)CC4)CC3)c2)cc1 [Compound 13, [1′-(1H-Benzotriazole-5-carbonyl)-[4,4′]bipiperidinyl-1-yl]-(4′-methyl-biphenyl-3-yl)-methanone] | < 10
O=C(CCc1ccc(Cl)cc1F)N1CCC(N2CCN(C(=O)c3ccc4[nH]nnc4c3)CC2)CC1 [Compound 61, 1-{4-[4-(1H-Benzotriazole-5-carbonyl)-piperazin-1-yl]-piperidin-1-yl}-3-(4-chloro-2-fluoro-phenyl)-propan-1-one] | < 10

Now from value to molecule:

IC50 [µM] | Structure (SMILES)
< 10 | Cc1nc(-c2ccc(Cl)cc2)sc1COC(=O)N1CCN(C2CCN(C(=O)c3ccc4[nH]nnc4c3)CC2)CC1 [Compound 174, 4-[1-(1H-Benzotriazole-5-carbonyl)-piperidin-4-yl]-piperazine-1-carboxylic acid 2-(4-chloro-phenyl)-4-methyl-thiazol-5-ylmethyl ester]
< 1 | O=C(OCc1cc(C(F)(F)F)cc(C(F)(F)F)c1)N1CCC(N2CCN(C(=O)c3ccc4[nH]nnc4c3)CC2)CC1 [Compound 162, 4-[4-(1H-Benzotriazole-5-carbonyl)-piperazin-1-yl]-piperidine-1-carboxylic acid 3,5-bis-trifluoromethyl-benzyl ester]
< 1 | O=C(OCc1ccc(OC(F)F)cc1)N1CCN(C2CCN(C(=O)c3ccc4[nH]nnc4c3)CC2)CC1 [Compound 167, 4-[1-(1H-Benzotriazole-5-carbonyl)-piperidin-4-yl]-piperazine-1-carboxylic acid 4-difluoromethoxy-benzyl ester]
< 10 | Cc1ccc(C(OC(=O)N2CCN(C3CCN(C(=O)c4ccc5[nH]nnc5c4)CC3)CC2)(C(F)(F)F)C(F)(F)F)cc1 [Compound 170, 4-[1-(1H-Benzotriazole-5-carbonyl)-piperidin-4-yl]-piperazine-1-carboxylic acid 2,2,2-trifluoro-1-p-tolyl-1-trifluoromethyl-ethyl ester]
< 1 | C[C@@H](OC(=O)N1CCN(C2CCN(C(=O)c3ccc4[nH]nnc4c3)CC2)CC1)c1cc(C(F)(F)F)cc(C(F)(F)F)c1 [Compound 169, 4-[1-(1H-Benzotriazole-5-carbonyl)-piperidin-4-yl]-piperazine-1-carboxylic acid (R)-1-(3,5-bis-trifluoromethyl-phenyl)-ethyl ester]
< 30 | Cc1ccc(C(C)CC(=O)N2CCN(C3CCN(C(=O)c4ccc5[nH]nnc5c4)CC3)CC2)cc1C (stereo not shown) [Compound 176, 1-{4-[1-(1H-Benzotriazole-5-carbonyl)-piperidin-4-yl]-piperazin-1-yl}-3-(3,4-dimethyl-phenyl)-butan-1-one]
< 10 | COc1ccc(Cl)cc1NC(=O)CN1CCC(N2CCN(C(=O)c3ccc4[nH]nnc4c3)CC2)CC1 [Compound 181, 2-{4-[4-(1H-Benzotriazole-5-carbonyl)-piperazin-1-yl]-piperidin-1-yl}-N-(5-chloro-2-methoxy-phenyl)-acetamide]
< 1 | O=C(OCc1ccc(OC(F)(F)F)c(Cl)c1)N1CCC(N2CCN(C(=O)c3ccc4[nH]nnc4c3)CC2)CC1 [Compound 143, 4-[4-(1H-Benzotriazole-5-carbonyl)-piperazin-1-yl]-piperidine-1-carboxylic acid 3-chloro-4-trifluoromethoxy-benzyl ester]
< 1 | O=C(OCc1cc(F)cc(Cl)c1)N1CCN(C2CCN(C(=O)c3ccc4[nH]nnc4c3)CC2)CC1 [Compound 152, 4-[1-(1H-Benzotriazole-5-carbonyl)-piperidin-4-yl]-piperazine-1-carboxylic acid 3-chloro-5-fluoro-benzyl ester]
< 1 | Cc1cc(C)cc(COC(=O)N2CCN(C3CCN(C(=O)c4ccc5[nH]nnc5c4)CC3)CC2)c1 [Compound 147, 4-[1-(1H-Benzotriazole-5-carbonyl)-piperidin-4-yl]-piperaizne-1-carboxylic acid 3,5-dimethyl-benzyl ester]
< 10 | CC(OC(=O)N1CCN(C2CCN(C(=O)c3ccc4[nH]nnc4c3)CC2)CC1)c1ccc(C(F)(F)F)cc1 (stereo not shown) [Compound 132, 4-[1-(1H-Benzotriazole-5-carbonyl)-piperidin-4-yl]-piperazine-1-carboxylic acid 1-(4-trifluoromethyl-phenyl)-ethyl ester]
< 10 | CC(CC(=O)N1CCN(C2CCN(C(=O)c3ccc4[nH]nnc4c3)CC2)CC1)c1ccc(C(F)(F)F)cc1 (stereo not shown) [Compound 177, 1-{4-[1-(1H-Benzotriazole-5-carbonyl)-piperidin-4-yl]-piperazin-1-yl}-3-(4-trifluoromethyl-phenyl)-butan-1-one]
